Results as given in patent US6414154B1, “Tetraisoquinoline derivatives as modulators of dopamine D3 receptors” (SmithKline Beecham p.l.c., priority 1998, dated 2002).
Where a name gives a salt, the structure may show the parent alone.

Molecular target: T1, human D3 dopamine receptors (Homo sapiens, UniProt P35462)
T1 construct: expressed in transfected cells; host or cells: CHO cells (crude cell membranes)
Assay: displacement of [125I] iodosulpride binding to cloned human D3 dopamine receptors expressed in CHO cells
Conditions: 0.1 nM [125I] iodosulpride, CHO cell membranes, 30 min at 37° C.; read-out: pKi at the D3 receptor (converted)
Experimental: The inhibition constants (Ki) of test compounds for displacement of [^125I] iodosulpride binding to human D3 dopamine receptors expressed in CHO cells were determined as follows. […] Cultures were grown as monolayers or in suspension in standard cell culture media. Cells were recovered by scraping (from monolayers) or by centrifugation (from suspension cultures), and were washed two or three times by suspension in phosphate buffered saline followed by collection by centrifugation. Cell pellets were stored frozen at −40° C. Crude cell membranes were prepared by homogenisation followed by high-speed centrifugation, and characterisation of cloned receptors achieved by radioligand binding.
Cell pellets were gently thawed at room temperature, and resuspended in about 20 volumes of ice-cold 50 mM Tris salts (pH 7.4@37° C.), 20 mM EDTA, 0.2 M sucrose. The suspension was homogenised using an Ultra-Turrax at full speed for 15 sec. The homogenate was centrifuged at 18,000 r.p.m for 20 min at 4° C. in a Sorvall RC5C centrifuge. The membrane pellet was resuspended in ice-cold 50 mM Tris salts (pH 7.4@37° C.), using an Ultra-Turrax, and recentrifuged at 18,000 r.p.m for 15 min at 4° C. in a Sorvall RC5C. The membranes were washed two more times with ice-cold 50 mM Tris salts (pH 7.4@37° C.). The final pellet was resuspended in 50 mM Tris salts (pH 7.4@37° C.), and the protein content determined using bovine serum albumin as a standard (Bradford, M. M. (1976) Anal. Biochem. 72, 248-254).
Crude cell membranes were incubated with 0.1 nM [^125I] iodosulpride (˜2000 Ci/mmol; Amersham, U. K.), and the test compound in a buffer containing 50 mM Tris salts (pH 7.4@37° C.), 120 mM NaCl, 5 mM KCl, 2 mM CaCl2, 1 mM MgCl2, 0.1% (w/v) bovine serum albumin, in a total volume of 1 ml for 30 min at 37° C. Following incubation, samples were filtered using a Brandel Cell Harvester, and washed three times with ice-cold 50 mM Tris salts (pH 7.4@37° C.), 120 mM NaCl, 5 mM KCl, 2 mM CaCl2, 1 mM MgCl2. The radioactivity on the filters was measured using a Cobra gamma counter (Canberra Packard). Non-specific binding was defined as the radioligand binding remaining after incubation in the presence of 100 μM iodosulpride. For competition curves, 14 concentrations (half-log dilutions) of competing cold drug were used. Competition curves were analysed simultaneously whenever possible using non-linear least-squares fitting procedures, capable of fitting one, two or three site models.

T1 sequence (P35462 whole entry): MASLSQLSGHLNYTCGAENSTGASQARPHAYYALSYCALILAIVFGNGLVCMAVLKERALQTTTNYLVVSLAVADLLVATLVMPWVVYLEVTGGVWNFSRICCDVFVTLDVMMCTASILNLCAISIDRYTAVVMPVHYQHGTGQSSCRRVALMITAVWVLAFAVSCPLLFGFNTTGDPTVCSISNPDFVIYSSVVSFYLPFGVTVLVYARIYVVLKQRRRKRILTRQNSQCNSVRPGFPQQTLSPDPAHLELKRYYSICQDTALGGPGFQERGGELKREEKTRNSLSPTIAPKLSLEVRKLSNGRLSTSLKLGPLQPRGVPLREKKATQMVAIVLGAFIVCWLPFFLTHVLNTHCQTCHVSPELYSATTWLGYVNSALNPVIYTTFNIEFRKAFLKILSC

Ki	Compound
3.16 to 12.6 nM	N#Cc1ccc2c(c1)CCN(CC[C@H]1CC[C@H](NC(=O)Cc3cc4ccccc4o3)CC1)C2 [Example 31, trans-6-Cyano-2-(2-(1-(4-(2-benzofuranyl)acetamido)-cyclohexyl)ethyl)-1,2,3,4-tetrahydroisoquinoline]
3.16 to 12.6 nM	N#Cc1ccc2c(c1)CCN(CC[C@H]1CC[C@H](NC(=O)Cc3ccc(F)cc3)CC1)C2 [Example 32, trans-6-Cyano-2-(2-(1-(4-(4-fluorophenyl)acetamido)cyclohexyl)ethyl)-1,2,3,4-tetrahydroisoquinoline, Hydrochloride]
